In article PMC9088798, “An Approach to Derive Functional Peptide Inhibitors of Transcription Factor Activity” (JACS Au, 2022):

Assays:
[1] = system: cJun bZIP / TRE sites in TRE-mDHFR gene; experiment: Transcription block survival (TBS) colony counting in E. coli; format: cell-based, human cJun, expressed in E. coli
Protocol: Figure 3 Transcription block survival (TBS) assay to derive functionally active cJun inhibitors. (A) Schematic illustrating the design and operation of TBS. (B) Controlled numbers of E. coli expressing the indicated proteins were plated on selective media and growth rates were calculated by counting colony-forming units. […] (2) A small effect on colony numbers is observed when cJun bZIP is additionally expressed. (3) TRE-mDHFR can replace the inhibited ecDHFR with colony count lower than for WT as expected. […] Although (6) cFos LZ and (7) FosW are known cJun-binders, they are unable to effectively dissociate the cJun bZIP from TRE DNA. However, (8) A-FosW and the TBS-derived hit (9) HingeW remove TRE-mDHFR transcriptional blocks to restore cell survival. Bar charts represent averages of three experimental repeats. Errors are shown as one standard deviation. Selected P values from a t-test are indicated (*P ≤ 0.05; **P ≤ 0.01; ****P ≤ 0.0001) with values for all possible comparisons within the bar chart reported in Figure S7. Serial dilutions were used to quantify colony numbers where required. Also shown are representative plate images and schematics to illustrate the effect upon TRE-mDHFR transcription. […]
Library Construction and TBS Assay: Library inserts were produced using PCR fill-in reactions from synthesised primers (Sigma) with degenerate codons at the desired positions to produce the correct residue options. The library was subcloned using SacI and AscI sites into the pET24a plasmid containing A-FosW. The primers used were cJun- […]
-3’ and cJun-Hinge-Lib_R: 5’-
-3’. The library DNA was transformed into NEB 10-beta electrocompetent E. coli cells. The following equation was utilised to determine library […]
coverage by the number of single colonies: where E is the percentage […] of the library missing, m is the number of colonies collected and n is the library size. This […]
covered. Library DNA quality was assessed by sequencing both the DNA pool and a number of single colonies to show degenerate codons in the correct positions in the pool and to show a diversity of library members from single colonies. The pool of library DNA was transformed into BL21 Gold cells already containing pES300d-TRE-mDHFR and […]
(§1) µM) alongside ampicillin, kanamycin and chloramphenicol to maintain the required plasmids, and IPTG (1 mM) to induce protein expression. The library transformants were […]
(§2) however a lower stringency is used initially before selection is increased in later steps.
(§3) Colonies from this first round of selection were pooled and serially grown in liquid culture at starting OD600 of 0.05 and grown at 37°C with shaking at 200 rpm until the OD600 […]
(§4) increased to the optimum 4 µM in subsequent passages. Bacteria containing the most effective functional antagonists were expected to produce higher levels of TRE-mDHFR which provides a growth advantage, and these will dominate the culture. At each passage step, a sample of the culture was plated on LB agar (supplemented with antibiotics to maintain plasmids) to select and sequence individual colonies, and a DNA pool was also sequenced. This allows the occurrence of library members to be monitored as winner sequences are selected for. Assay Validation experiments utilised a modified assay methodology whereby overnight cultures from glycerol stocks of the Control Strains (Figure S6) were diluted to OD600=0.5 and 50 µL was plated on a selective M9 minimal […]

[2] = CD spectroscopy of single components (helicity); format: physicochemical; conditions: 20 °C, 10 μM, 150 mM potassium phosphate, 150 mM KF, 5 mM TCEP, pH 7.4
Protocol: Figure 5 TBS winner peptide HingeW binds cJun preferentially over A-FosW. CD spectra (20 °C) show the binding of cJun to either (A) HingeW or (B) A-FosW. […] However, the effect is larger for HingeW, indicating a greater increase in peptide helicity. Similarly, the thermal denaturation of cJun bound to either (C) HingeW or (D) A-FosW is right-shifted from the average of the component peptide denaturation profiles. […] CD dimer exchange spectra show (E) an increase in helicity when HingeW is mixed with the A-FosW/cJun heterodimer as the HingeW exchanges with the A-FosW due to the binding preference of cJun for HingeW and (F) no shift from the average is observed when A-FosW is mixed with the HingeW/cJun heterodimer, indicating no change in dimer populations. Arrows are shown to highlight the shift from the average at 190 and 222 nm. In all experiments, the total sample peptide concentration was fixed to 10 μM, using equimolar concentrations of each component peptide to remove concentration-dependent effects. […]
as §1
increased to the optimum 4 µM in subsequent passages. […] This allows the occurrence of library members to be monitored as winner sequences are selected for. […]

TRE DNA = experiment: CD control, interaction with TRE DNA; format: binding; conditions: peptide 50 µM, TRE DNA 5 µM, CD spectra 260-320 nm
Protocol: as §1, §2, §3, §4
Circular Dichroism (CD): An Applied Photophysics Chirascan was used for CD measurements, with a 200 µL sample in a 1 mm path length CD cell. […]

Substance	colony numbers restored relative to TRE-mDHFR only ([1]; TRE-mDHFR + cJun bZIP + peptide, M9 + 4 μM TMP + 1 mM IPTG, average of three experimental repeats)	Fraction helicity of single component [2]	interaction with TRE DNA (TRE DNA)	reduction in colony counts on expression of cJun bZIP with TRE-mDHFR ([1]; M9 minimal media + 4 μM TMP + 1 mM IPTG, TRE-mDHFR + cJun bZIP, P ≤ 0.0001, average of three experimental repeats)	reduction in colony counts on expression of cJun bZIP without TRE sites (WT-mDHFR) ([1]; M9 minimal media + 4 μM TMP + 1 mM IPTG, WT-mDHFR + cJun bZIP vs WT-mDHFR, P ≤ 0.05, three experimental repeats)
LEQRAEELARENEELEKEAEELEQELDELQAEIEQLEERNYALRKEIEDLQKQLEKL [A-FosW, N-terminal AS and C-terminal GAP caps, 6xHis-tagged]	60%	40.1%	no interaction with DNA	–	–
cJun bZIP: human cJun bZIP domain, Arg252 to Leu308 (target protein)	–	14.0%	–	21 fold	1.3 fold
